{
  "source": "patent US20220218659A1",
  "about": "“PI3K/LYN-ACLY Signaling Inhibition” (Institute For Cancer Research d/b/a The Research Institute …, priority 2019, published 2022)",
  "key": {"[1]": {"test_system": "Histone H3 acetylation (H3K9ac)", "test": "Histone H3 (H3K9) acetylation by Western blot in HL-60 cells", "type": "cell-based", "conditions": "16 hours, 10% FBS in RPMI", "method": "Therefore, to evaluate the link between PI3K/Lyn and ACLY-mediated pathways in AML, HL-60 AML cell line were also used, in addition to primary patient-derived AML cells. HL-60 cell line was from American Type Culture Collection (ATCC). It was decided to use this particular HL-60 cell line for consistency herein since HL-60 cells express the active NRAS oncoprotein, similarly like the patient-derived AML cells (FIG. 7 and FIG. 8). HL-60 AML cell line was grown in RPMI 1640 medium supplemented with 10% fetal bovine serum, 2 mM 1-glutamine and 1% penicillin-streptomycin and maintained at 37° C. and 5% CO2. Cells were treated with the Lyn inhibitor (100 nM-1000 nM Bafetinib) or PI3K inhibitors (500 nM-2.5 μM LY294002 or 100 nM-2.0 μM BKM120) or vehicle (0.1% DMSO) in the presence of 10% FBS in RPMI media for 16 hours for Acetyl CoA measurement, phospholipid and histone acetylation analysis.\nHL-60 cell line was seeded at a concentration of 1×10^6/ml in 10 ml media onto 40 ml culture-flask and cultured for 16 hours in the presence of indicated concentration of LYN or PI3K inhibitors or DMSO (0.1% dimethyl sulfoxide). Cells were harvested and lysed in 1 ml of ice-cold Pierce IP lysis buffer (Pierce Inc.) in the presence of Proteinase and phosphatase inhibitor cocktail (Thermofisher) and sonicated for 20 seconds. Lysates were cleared by centrifugation at 12000 rpm in cold conditions on bench top centrifuge, and the supernatant was used for protein determination by BCA assay kit (Pierce Inc). Equivalent amounts of protein lysate were mixed with sodium dodecylsulfate (2×SDS) and boiled for 8 minutes. Samples were resolved by 4-12% gradient sodium dodecylsulfate-polyacrylamide gel electrophoresis (NOVEX; Invitrogen) and blotted onto nitrocellulose filters. Membranes were blocked for 1 hour in 0.1% Tween-20 and 5% bovine serum albumin. Primary antibodies for H3K9ac, histone H3, Lyn, ACLY and GAPDH were added to 5% BSA at concentrations provided by the vendor's instructions and incubated with membranes overnight at 4° C. before removing by washing. […]"}, "Acetyl-CoA": {"test_system": "Acetyl-CoA", "test": "Acetyl-CoA measurement in HL-60 cells", "type": "cell-based", "conditions": "16 hours", "method": "HL-60 cells were cultured as above, treated with Bafetinib (500 nM), PI3K inhibitors (1 μM) for 16 hours. After treatment, cells were washed with medium and harvested for acetyl-CoA extraction from 5×10^6 cells per condition in triplicate, acetyl-CoA levels were measured using Pico-Probe Acetyl-CoA Fluorometric Assay kit (BioVision, Milpitas, Calif.) following the manufacturer's instructions."}, "ACLY binding to PIP2": {"test_system": "ACLY binding to PIP2", "test": "Phospho-ACLY bound to PIP2 (PIP2 immunoprecipitation and western blotting) in transfected HEK293T cells", "type": "cell-based, human", "conditions": "ACLY-HA with active SRC kinase, 2 μM, 15 hours"}, "PI/PIP/PIP2": {"test_system": "PI/PIP/PIP2", "test": "Lipidomic analysis of PI, PIP and PIP2 in HL-60 cells", "type": "cell-based", "conditions": "16 hours, 10% FBS in RPMI", "method": "Phosphoinositides from HL60 cells treated with PI3K and Lyn inhibitors were compared with those from control cells (0.1% DMSO in culture medium). HL60 cells were treated with PI3K inhibitors LY294002, BKM120 or the Lyn inhibitor Bafetinib for 16 hours followed by TCA precipitation and freezing at −80° C. TCA precipitates were spiked with 20 ng of two internal standards (PIP 37:4; PIP2 37:4) and subjected to lipid extraction as described below and analyzed via LC/MS/MS. TMS-diazomethane derivatized phospholipids including phosphatidyl inositol (PI), phosphatidylinositol phosphate (PIP) and phosphatidylinositol bisphosphate (PIP2) values were measured using UPLC/MS/MS MRM Mass Spectrometry. […] Phosphatidylinositol trisphosphate (PIP3) was also measured but levels were too low in these cells to be analyzed. The endogenous PIP3 is several orders of magnitude less abundant than PIP2 in cells. It is well established that the basal PIP3 level is often undetectable in cells due to its low quantity and short halflife. […]\nUPLC/MS: Dried, methylated cell extracts were suspended in 100 μl 100% methanol (LC-MS Optima grade, Fisher) prior to chromatographic separation and MS/MS. […] The effluent was monitored by a Waters XEVO TQ-S MS/MS in multiple reaction monitoring (MRM) in positive ion mode. […]"}, "HL-60 AML cells": {"test_system": "HL-60 AML cells", "test": "MTT assay, growth of HL-60 AML cells", "type": "cell-based", "conditions": "within 72 hours", "method": "HL-60 cells were treated with various concentrations of Bafetinib (Lyn kinase), BKM120 (PI3K) and BMS 303141 (ACLY) inhibitors in the presence of 10% RPMI media for 72 hours. The growth-inhibitory effect was examined using a […] assay (MTT; Sigma-Aldrich) as per the instructions of the manufactured kit. The experiment was performed in triplicate."}, "[2]": {"test": "ACLY peptide binding on PIP specificity plates", "conditions": "PIP specificity plate, 20 pmols phosphoinositide per well, peptide 1.0 μg/ml", "method": "ACLY peptides: Based on PIP2 binding motif analysis on ACLY using full length protein sequence, two PIP2 binding domains were predicted. The ACLY peptide-1 in the ATP-grasp domain sequence (peptide-1: […]; SEQ ID NO:15) and the ACLY peptide-2, in the CoA-binding domain sequence (peptide-2: […]; SEQ ID NO:5). N-terminally biotinylated peptides were synthesized (Genscript, Inc). ACLY-PIP specificity binding assay was performed using the N-terminally biotinylated peptides at 1.0 μg/ml concentration in 1% goat serum in Tris buffer saline (TB S) and the Cova PIP Specificity plate H-6300 (Echelon Biosciences) according to manufactures instructions. In brief, ACLY peptide-1 and peptide-2 at final concentration of 1.0 μg/ml in 100 μl volume were incubated for overnight at 4° C. After three washes with TBST buffer, the wells were incubated with 100 μl of HRP-conjugated Biotin antibody, followed by three washes. The bound peptides were detected with Super-Signal ELISA-Pico chemiluminescent substrate kit from ThermoFisher and reading the absorbance at 450 nm for 3-30 minutes."}},
  "note": "No end group written: not given here. *: point of attachment. Biotin = O=C1N[C@H]2[C@H](CS[C@H]2CCCCC(=O)*)N1",
  "data": [
    {"compound": "Nc1cc(C(F)(F)F)c(-c2cc(N3CCOCC3)nc(N3CCOCC3)n2)cn1", "note": "[BKM120, Buparlisib]", "values": [
      {"measurement": "Histone H3 acetylation blocked (densitometric analysis)", "setting": "[1]", "value": 97, "unit": "%"},
      {"measurement": "synthesis of Acetyl-CoA", "setting": "Acetyl-CoA", "value": "significantly prevented"},
      {"measurement": "phospho-ACLY bound to PIP2 versus DMSO", "setting": "ACLY binding to PIP2", "value": "significant difference"},
      {"measurement": "levels of total PI/PIP/PIP2 compared to DMSO control", "setting": "PI/PIP/PIP2", "value": "overall decrease"}
    ]},
    {"compound": "COc1ccc(-c2ccccc2)cc1NS(=O)(=O)c1cc(Cl)cc(Cl)c1O", "note": "[BMS303141]", "values": [
      {"measurement": "IC50", "setting": "HL-60 AML cells", "value": "10 to 20", "unit": "µM"}
    ]},
    {"compound": "Cc1ccc(NC(=O)c2ccc(CN3CC[C@H](N(C)C)C3)c(C(F)(F)F)c2)cc1Nc1nccc(-c2cncnc2)n1", "note": "[Bafetinib]", "values": [
      {"measurement": "Histone H3 acetylation blocked (densitometric analysis)", "setting": "[1]", "value": 90, "unit": "%"}
    ]},
    {"compound": "O=c1cc(N2CCOCC2)oc2c(-c3ccccc3)cccc12", "note": "[LY294002]", "values": [
      {"measurement": "Histone H3 acetylation blocked (densitometric analysis)", "setting": "[1]", "value": 60, "unit": "%"}
    ]},
    {"compound": "ALTRKLIKKADQKGV (Biotin-ALTRKLIKKADQKGV) [ACLY peptide-2]", "values": [
      {"measurement": "binding to PI(4,5)P2", "setting": "[2]", "value": "binds to PI(4,5)P2"}
    ]}
  ]
}
